Assay: Antagonist activity at CXCR4 in human CCRF-CEM cells assessed as inhibition of CXCL12-induced CXCR4+ cell migration pre-incubated for 10 mins before CXCL12 addition and measured after 2.5 hrs by flow cytometric analysis

EC50: 14 nM
SMILES: Cc1cc(NC2CCN(C(=O)CCNCC(=O)O)CC2)nc(NCc2cn(CCCNCCCNC3CCCCC3)nn2)n1

— BindingDB's records for doi:10.1021/acs.jmedchem.7b01322 (National Health Research Institutes, 2018)
